Source: paper PMC3534050, “Simultaneous Single-Sample Determination of NMNAT Isozyme Activities in Mouse Tissues” (PLoS ONE, 2012)
Where two headings read alike, the source gives them in different places.

Test system: T1, Wld^S
T1 construct: gene Nmnat1; full-length Wld^S ORF (1119 bp): N-terminal Ube4b fragment fused to NMNAT1; predicted mass 44001 Da; with Ubiquitin conjugation factor E4 B
Assay: C18-HPLC of NAD formed, nonlinear fit
Type: biochemical, Mus musculus
Conditions: HEPES/KOH pH 7.5, MgCl2, 37°C
From the text: C18-HPLC of NAD formed, nonlinear fit on Wld^S

Km (read-out: ATP / K m, co-substrate NMN, ATP 25–175 µM) [µM]	Km (co-substrate ATP, NMN 5–100 µM, read-out: NMN / K m) [µM]	Compound
29.6 ± 1.8	–	Nc1ncnc2c1ncn2[C@@H]1O[C@H](COP(=O)(O)OP(=O)(O)OP(=O)(O)O)[C@@H](O)[C@H]1O [ATP]
–	32.2 ± 1.2	NC(=O)c1ccc[n+]([C@@H]2O[C@H](COP(=O)(O)O)[C@@H](O)[C@H]2O)c1 [NMN]
